Laboratory results: patent publication US20120101057A1, “COMBINED THERAPY OF COLORECTAL CARCINOMA” (INSTYTUT FARMACEUTYCZNY, priority 2009, published 2012)

Columns and labels:
HT-29 = assay: antiproliferative activity of 5-fluorouracil combined with vitamin D analogues in vitro, 120 h; type: cell-based, human; parameters: key: +: sub-additive effect; ++: additive effect; +++: synergistic effect; −: antagonism; conditions: analogue 100 nM + 5-fluorouracil 0.1 μg/ml, 120-hours exposure
Method: (§1) After 24 h culture, the cells of large intestine carcinoma were treated simultaneously with calcitriol or vitamin D analogues and 5-fluorouracil for 120 hours. The final concentration of vitamin D analogues was 100 nM, and of 5-fluorouracil—-1 μg/ml or 0.1 μg/ml. Statistical analysis of the obtained results of inhibition of proliferation was carried out by analysis of percent of inhibition of proliferation in individual combinations of compounds.
(§2) Hypothetical value was calculated according to a formula: […]
(§3) wherein: % H—hypothetical inhibition of proliferation by combination of compounds [Vo]; % cyt—inhibition of proliferation by 5-Fu alone [%]; % vit—inhibition of proliferation by calcitriol or cholecalciferol analogue alone [%];
(§4) Additive effect occurs when the experimental and hypothetical value are similar, sub-additive effect occurs when experimental value is lower than hypothetical value but above value for a cytostatic alone, and antagonistic action—when a value determined for a cytostatic used alone is above experimental value for combination of both compounds. [Peters G. J. i wsp.: Pharmacol Ther 2000, 87, 227-253]

LoVo = assay: as above; type: cell-based, human; parameters: key: +: sub-additive effect; ++: additive effect; +++: synergistic effect; −: antagonism; conditions: analogue 100 nM + 5-fluorouracil 1 μg/ml, 120-hours exposure
Method: as §1, §2, §3, §4

MC38/0 = assay: as above; type: cell-based, mouse; parameters: key: +: sub-additive effect; ++: additive effect; +++: synergistic effect; −: antagonism; conditions: 120-hours exposure
Method: After 24 h culture, the cells of large intestine carcinoma were treated simultaneously with calcitriol or vitamin D analogues and 5-fluorouracil for 120 hours. […] Statistical analysis of the obtained results of inhibition of proliferation was carried out by analysis of percent of inhibition of proliferation in individual combinations of compounds.
as §2, §3, §4

CaCo-2 = assay: as above; type: cell-based, human; parameters: key to Type of reaction between vitamin D analogues and 5-fluorouracil: +: sub-additive effect; ++: additive effect; +++: synergistic effect; −: antagonism; conditions: CaCo-2; analogue 100 nM + 5-fluorouracil 1 μg/ml; 120-hours exposure
Method: as §1, §2, §3, §4

[1] = test system: murine colorectal cancer C38; assay: tumour growth in mice with colorectal cancer C38 treated with 5-fluorouracil (1a); type: in vivo, Mice of C57BL/6 strain
[2] = test system: murine colorectal cancer C38; assay: survival time and tumour growth in mice with colorectal cancer C38 treated with 5-FU (1b); type: in vivo
Method: Mice with colorectal cancer C38 were treated with 5-FU given in a single administration, intraperitoneally on day 1 at a dose of 75 mg/kg.

[3] = test system: murine colorectal cancer MC38/EGFP; assay: burden of metastases in regional lymph nodes, MC38/EGFP fluorescence (1c); type: in vivo, mice
From the text: Cancer cells of murine colorectal cancer MC38/EGFP (cells expressing a protein of green fluorescence) were implanted subcutaneously in an amount of 1×10^6 cells/mouse. […] Compounds were given subcutaneously, 3 times a week. […] Then on day 59 of experiment, lymph nodes from mice of remaining were taken for analysis. Using NightOWL II LB 983 apparatus, photographs of isolated lymph nodes were taken in order to visualize cancer cells in sites of metastases.
Intensity of the measured fluorescence is related to a burden of metastases (the number of cells with fluorescence).

colorectal cancer HT-29 = assay: tumour growth in mice with colorectal cancer HT-29 treated with 5-fluorouracil; type: in vivo
[4] = test system: murine colorectal carcinoma C38; assay: tumour growth in mice with murine colorectal carcinoma C38 treated with capecitabine; type: in vivo, Mice of C57BL/6 strain
[5] = calcium level in blood serum of mice treated with 5-FU and vitamin D analogues; type: in vivo, Mice of BALB/c strain; conditions: BALB/c; 5-FU 50 mg/kg i.p. day 1; PRI-2191 2 or PRI-2205 10 μg/kg/day 3 times a week
Method: Mice of BALB/c strain were treated with 5-FU given in a single administration, intraperitoneally on day 1 at a dose of 50 mg/kg. […] Calcium level was evaluated (Arsezano 3 method, Olympus AU400; Olympus America Inc., Melville, NY, USA) in blood serum of treated and control mice.

[6] = body mass of mice under combined therapy; type: in vivo; conditions: combination with 5-FU
[7] = analogue combined with capecitabine

## C=C1/C(=C\C=C2/CCC[C@]3(C)[C@@H]([C@H](C)CC[C@@H](O)C(C)C)CC[C@@H]23)C[C@@H](O)C[C@@H]1O [PRI-2191, 1,24(R)-dihydroxycholekalciferol]
HT-29
  Type of reaction between vitamin D analogues and 5-fluorouracil: +++
LoVo
  Type of reaction between vitamin D analogues and 5-fluorouracil: +++
MC38/0; MC38/0, analogue 100 nM + 5-fluorouracil 0.1 μg/ml
  Type of reaction between vitamin D analogues and 5-fluorouracil: +++
MC38/0; analogue 100 nM + 5-fluorouracil 0.01 μg/ml, cell line of this column unclear (MC38/0 or CaCo-2)
  Type of reaction between vitamin D analogues and 5-fluorouracil: +++
CaCo-2
  Type of reaction between vitamin D analogues and 5-fluorouracil: +++
[1]; C38, 28 day of experiment
  TGI: 16%
[1]; C38, 28 day of experiment, 5-FU 150 mg/kg i.p., PRI-2191 2 ug/kg s.c., PRI-2205 10 μg/kg s.c.
  Tumours MEAN ± SD: 0.88 ± 0.49 g
[1]; analogue combined with 5-FU
  volume of tumours C38, combination with 5-FU in comparison with 5-FU: decreases in statistically significant manner volume of tumours also in comparison with 5-FU
[1]; single agent
  volume of tumours C38 in comparison with control: inhibits 38C tumours growth in the last four measurements
[2]; C38, 5-FU 75 mg/kg i.p. day 1, PRI-2191 2, PRI-2205 10 μg/kg/day 3 times per week
  ILS %: 52%
[2]; C38, day 20
  TGI (d20) %: 44%
[2]; analogue combined with 5-FU
  C38 tumour mass, combination with 5-FU in comparison with 5-FU: in a statistically significant manner decreases tumour mass also in comparison with 5-FU
[2]; single agent
  C38 tumour mass in comparison with control: inhibits C38 tumour growth only in two last measurements
[3]; 5-FU 75 mg/kg i.p. with PRI-2191 1 μg/kg or PRI-2205 10 μg/kg s.c., day 59
  metastases in regional lymph nodes (intensity of fluorescence), combined treatment with 5-FU: increased anti-metastatic action
[3]; analogue only, day 50
  metastases in regional lymph nodes (fluorescence) versus control mice: did not differ significantly
Colorectal cancer HT-29; HT-29, 49 day of experiment
  TGI: 16%
  Tumours MEAN ± SD: 2.19 ± 1.51 g
Colorectal cancer HT-29; analogue combined with 5-FU
  HT-29 tumour mass, combination with 5-FU in comparison with 5-FU alone: influences significantly also tumour mass in comparison with 5-FU alone
  type of interaction in inhibition of HT-29 tumour growth: synergism
Colorectal cancer HT-29; single agent
  HT-29 tumour mass in comparison with control: did not influence tumour mass
[4]; C38, 18 day of experiment, KCY 250 mg/kg/day oral, PRI-2191 1, PRI-2205 10 μg/kg/day s.c.
  Tumours MEAN ± SD: 0.75 ± 0.32 g
[4]; [7]
  tumour mass, combination with capecitabine in comparison with capecitabine alone: influences significantly tumour mass in comparison with capecitabine alone
  type of interaction in inhibition of tumour growth with capecitabine: a synergistic effect is seen mainly in the last days of the experiment
[4]; single agent
  tumour C38 mass in comparison with control: does not influence tumour mass
[5]
  calcium level in blood serum of mice: calcium level increases in statistically significant degree
[6]
  body mass of mice treated with 5-FU in combination with vitamin D analogue, versus 5-FU alone: increased loss of body mass
